These results are taken from ChEMBL document CHEMBL5724914, “Linking interpersonal differences in gut microbiota composition and drug biotransformation activity” (2024).

Series [1] is described as follows: The drug is tested on Z-025 corresponding to rabbit gut metagenome with ENA study accession number: PRJEB37062 and ENA sample accession number: ERS12561824 for biotransformation under anaerobic condition. The drug concentrations were measured over 9 timepoints collected between 0 and 24 hours of incubation by liquid-chromatography-coupled mass spectrometry (LC–MS). The settings on record: 2 µM.

Series [2] in a line: The drug is tested on Z-024 corresponding to pig gut metagenome with ENA study accession number: PRJEB37062 and ENA sample accession number: ERS12561823 for biotransformation under anaerobic condition. The drug concentrations were measured over 9 timepoints collected between 0 and 24 hours of incubation by liquid-chromatography-coupled mass spectrometry (LC–MS). The settings on record: 2 µM.

Series [3] in a line: The drug is tested on Z-009 corresponding to pig gut metagenome with ENA study accession number: PRJEB37062 and ENA sample accession number: ERS12561809 for biotransformation under anaerobic condition. The drug concentrations were measured over 9 timepoints collected between 0 and 24 hours of incubation by liquid-chromatography-coupled mass spectrometry (LC–MS). The settings on record: 2 µM.

Series [4] is described as follows: The drug is tested on Z-007 corresponding to rat gut metagenome with ENA study accession number: PRJEB37062 and ENA sample accession number: ERS12561807 for biotransformation under anaerobic condition. The drug concentrations were measured over 9 timepoints collected between 0 and 24 hours of incubation by liquid-chromatography-coupled mass spectrometry (LC–MS). The settings on record: 2 µM.

A short description of series [5]: The drug is tested on WLS-077 corresponding to human gut metagenome with ENA study accession number: PRJEB37062 and ENA sample accession number: ERS12561750 for biotransformation under anaerobic condition. The drug concentrations were measured over 9 timepoints collected between 0 and 24 hours of incubation by liquid-chromatography-coupled mass spectrometry (LC–MS). The settings on record: 2 µM.

The conditions of series [6]: human gut metagenome, 24 h, 2 µM.
For series [7] the following is noted: human gut metagenome, 24 h, 2 µM. The source holds these as a separate data set.
For series [8] the following is noted: human gut metagenome, 24 h, 2 µM. This is another data set of the same source.
For series [9] the following is noted: human gut metagenome, 24 h, 2 µM. This is another data set of the same source.

Molecules are shown by their SMILES.
Note: call rule not given here.

Consider `CN1CCN(C2=Nc3cc(Cl)ccc3Nc3ccccc32)CC1` [CLOZAPINE], for which the “Bacterial Biotransformation” value in series [1] is reported as “Compound NOT metabolized”; in [2], “Compound NOT metabolized”; in [3] it was “Compound NOT metabolized”; in series [4], “Compound NOT metabolized”; in series [5], “Compound NOT metabolized”; in series [6], “Compound metabolized”. Besides, the figures for the “Bacterial Biotransformation” value in [7], in [8] and in [9] were “Compound metabolized”, “Compound NOT metabolized” and “Compound NOT metabolized”, respectively.

On to `COc1cc2c(c(OC)c1OC)-c1ccc(OC)c(=O)cc1[C@@H](NC(C)=O)CC2` [COLCHICINE], for which the “Bacterial Biotransformation” value is “Compound NOT metabolized” in series [1]; “Compound NOT metabolized” in series [2]; “Compound metabolized” in series [3]; “Compound NOT metabolized” in series [4]; “Compound metabolized” in series [5]; “Compound NOT metabolized” in [6]. The figures for the “Bacterial Biotransformation” value in series [7], in series [8] and in series [9] were “Compound metabolized”, “Compound metabolized” and “Compound NOT metabolized”, respectively.

With `CC(=O)OCC(=O)[C@@]12N=C(C)O[C@@H]1C[C@H]1[C@@H]3CCC4=CC(=O)C=C[C@]4(C)[C@H]3[C@@H](O)C[C@@]12C` [DEFLAZACORT], the “Bacterial Biotransformation” value in [1], in series [2], in [3], in [4], in [5] and in series [6] was “Compound metabolized” in each case. Besides, the “Bacterial Biotransformation” value in series [7], in [8] and in series [9] was “Compound metabolized” in each case.

Regarding `CN(C)CC(c1ccc(O)cc1)C1(O)CCCCC1.O=C(O)CCC(=O)O` (stereo unspecified) [DESVENLAFAXINE SUCCINATE], the “Bacterial Biotransformation” value in [1], in [2], in series [3], in [4], in series [5] and in [6] was “Compound NOT metabolized” throughout. Further, the “Bacterial Biotransformation” value in series [7], in [8] and in series [9] was “Compound NOT metabolized” throughout.

Take `CN1CCN(C(=O)O[C@H]2c3nccnc3C(=O)N2c2ccc(Cl)cn2)CC1` [ESZOPICLONE]: the “Bacterial Biotransformation” value in series [1], in series [2], in [3], in series [4], in [5] and in series [6] was “Compound NOT metabolized” in each case. In addition, the “Bacterial Biotransformation” value in series [7], in [8] and in [9] was “Compound NOT metabolized” each time.

Turning to `O=C1[C@H](CC[C@H](O)c2ccc(F)cc2)[C@@H](c2ccc(O)cc2)N1c1ccc(F)cc1` [EZETIMIBE], the “Bacterial Biotransformation” value in series [1] was “Compound NOT metabolized”; in [2], “Compound NOT metabolized”; in [3], “Compound NOT metabolized”; in [4], “Compound NOT metabolized”; in series [5], “Compound metabolized”; in series [6], “Compound NOT metabolized”. The “Bacterial Biotransformation” value in [7], in series [8] and in [9] was “Compound NOT metabolized” throughout.

Take `CC(C)OC(=O)C(C)(C)Oc1ccc(C(=O)c2ccc(Cl)cc2)cc1` [FENOFIBRATE]: the “Bacterial Biotransformation” value in [1] was “Compound metabolized”; in [2], “Compound NOT metabolized”; in [3], “Compound metabolized”; in series [4], “Compound metabolized”; in series [5], “Compound NOT metabolized”; in series [6], “Compound metabolized”. Besides, the figures for the “Bacterial Biotransformation” value in series [7], in series [8] and in series [9] were “Compound metabolized”, “Compound metabolized” and “Compound NOT metabolized”, respectively.

For `O=C1NCC2(CCN(CCc3ccccc3)CC2)O1` [FENSPIRIDE], the “Bacterial Biotransformation” value in [1], in series [2], in [3], in series [4], in series [5] and in series [6] was “Compound NOT metabolized” throughout. For the same compound, the “Bacterial Biotransformation” value was “Compound metabolized” in [7], “Compound NOT metabolized” in series [8] and “Compound NOT metabolized” in [9].

Turning to `OC(Cn1cncn1)(Cn1cncn1)c1ccc(F)cc1F` [FLUCONAZOLE], the “Bacterial Biotransformation” value in series [1] is listed as “Compound NOT metabolized”; in series [2], “Compound metabolized”; in [3], “Compound NOT metabolized”; in series [4] it was “Compound NOT metabolized”; in series [5] it was “Compound NOT metabolized”; in series [6] it was “Compound NOT metabolized”. For the same compound, the entries for the “Bacterial Biotransformation” value in [7], in [8] and in series [9] were “Compound metabolized”, “Compound NOT metabolized” and “Compound NOT metabolized”, respectively.

On to `CNCCC(Oc1ccc(C(F)(F)F)cc1)c1ccccc1` (stereo unspecified) [FLUOXETINE], for which the “Bacterial Biotransformation” value in series [1] is on record as “Compound NOT metabolized”; in series [2], “Compound NOT metabolized”; in series [3] it was “Compound NOT metabolized”; in [4] it was “Compound NOT metabolized”; in series [5] it was “Compound NOT metabolized”; in series [6], “Compound metabolized”. Moreover, the “Bacterial Biotransformation” value in series [7], in series [8] and in series [9] was “Compound NOT metabolized” each time.

As for `O=C(CCCN1CCC(O)(c2ccc(Cl)cc2)CC1)c1ccc(F)cc1` [HALOPERIDOL], the “Bacterial Biotransformation” value in [1] is “Compound NOT metabolized”; in series [2], “Compound NOT metabolized”; in [3] it was “Compound metabolized”; in series [4], “Compound NOT metabolized”; in series [5] it was “Compound NOT metabolized”; in [6], “Compound NOT metabolized”. Moreover, the “Bacterial Biotransformation” value in [7], in series [8] and in [9] was “Compound NOT metabolized” in each case.

For `CCCCC1=NC2(CCCC2)C(=O)N1Cc1ccc(-c2ccccc2-c2nnn[nH]2)cc1` [IRBESARTAN], the “Bacterial Biotransformation” value is on record as “Compound NOT metabolized” in series [1]; “Compound metabolized” in series [2]; “Compound metabolized” in series [3]; “Compound NOT metabolized” in series [4]; “Compound metabolized” in [5]; “Compound metabolized” in series [6]. The “Bacterial Biotransformation” value in [7], in series [8] and in series [9] was “Compound metabolized” each time.

With `NC(CO)(CO)CO.O=C(c1ccccc1)c1ccc2n1CCC2C(=O)O` (stereo unspecified) [KETOROLAC TROMETHAMINE], the “Bacterial Biotransformation” value in [1] is recorded as “Compound NOT metabolized”; in series [2] it was “Compound metabolized”; in series [3], “Compound NOT metabolized”; in series [4], “Compound NOT metabolized”; in [5], “Compound metabolized”; in [6], “Compound metabolized”. The “Bacterial Biotransformation” value in [7], in series [8] and in series [9] was “Compound metabolized” in each case.

Regarding `CN1C(=O)CC(C)(c2ccccc2)C1=O` (stereo unspecified) [METHSUXIMIDE], the “Bacterial Biotransformation” value is given as “Compound NOT metabolized” in [1]; “Compound metabolized” in [2]; “Compound NOT metabolized” in series [3]; “Compound NOT metabolized” in series [4]; “Compound NOT metabolized” in series [5]; “Compound NOT metabolized” in [6]. For the same compound, the “Bacterial Biotransformation” value in [7] is given as “Compound NOT metabolized”; in series [8] it was “Compound metabolized”; in series [9], “Compound NOT metabolized”.
